Data on 14 molecules can be found in patent publication US5319139A, “Naphthalene derivatives” (Eisai Co. Ltd., priority 1990, dated 1994).

Assay [1] concerns PGE2 production from synovial cells of rat. Kind of assay: Activity against the PGE2 production from cultured synovial cell of rat. The format is cell-based, rat (Lewis male). The conditions noted are these: 24 h, cultured rat synovial cells stimulated with neutrophil-originating factor (IL-1-like factor), PGE2 after one day by radioimmunoassay, read-out: Inhibitory activity against PGE2 production from synovial cells of rat IC50. Here is the method: Activity against the PGE2 production from cultured synovial cell of rat
A synovial membrane taken out of the knee joint of a Lewis male rat was treated with collagenase-trypsin to separate off synovial cells. A test compound was added to a system prepared by the subculture of the synovial cells. The cells were stimulated with a neutrophil-originating factor (IL-1-like factor) to induce PGE2 production. After one day, the amount of PGE2 liberated into the culture medium was determined by radioimmunoassay (see R. Hashida et al., Prostaglandins, 27 (1984), 697).

The test system of assay [2] is LTB4 production from human neutrophil. The assay can be described thus: Activity against LTB4 production from human neutrophil. The format is cell-based. The conditions noted are these: human peripheral blood neutrophils, preincubated 37° C. 5 minutes, calcium ionophore A23187 2 μg/ml, 10 minutes, radioimmunoassay, read-out: Inhibitory activity against LTB4 production from human neutrophil IC50. Here is the method:
Activity against LTB4 production from human neutrophil
A test compound was added to a suspension of neutrophil separated from the human peripheral blood and the obtained mixture was preincubated at 37° C. for 5 minutes, followed by the addition of calcium ionophore A23187 in an amount of 2 μg/ml. After 10 minutes, the obtained mixture was cooled to stop the reaction. The amount of LTB4 contained in the supernatant of the reaction mixture was determined by radioimmunoassay (see H. Shirota et al., Arzneim Forsol Drug Res., 37 (1987) 930).

As to `C/C=C(\C(=O)O)c1cc(OC)c(O)c2c(Cc3ccccc3)cccc12` [Example 1, (Z)-2-(5-Benzyl-4-hydroxy-3-methoxy-1-naphthyl)-2-butenoic acid], the IC50 (as a rule, the midpoint of a concentration-inhibition curve) in assay [1] was determined as 420 nM; in assay [2], 510 nM.
Consider `COc1cc(C(C(=O)O)=C(C)C)c2cccc(Cc3ccccc3)c2c1O` [Example 15, 2-(5-benzyl-4-hydroxy-3-methoxy-1-naphthyl)-3-methyl-2-butenoic acid], for which the results for the IC50 in assay [1] and in assay [2] were 1070 nM and 730 nM, respectively.
Regarding `C=C(C(=O)O)c1cc(OC)c(O)c2c(Cc3ccccc3)cccc12` [Example 14, 2-(5-benzyl-4-hydroxy-3-methoxy-1-naphthyl)-2-propenoic acid], the results for the IC50 in assay [1] and in assay [2] were 3230 nM and 720 nM, respectively.
On to `C=CC/C=C(\C(=O)O)c1cc(OC)c(O)c2c(Cc3ccccc3)cccc12` [Example 5, (Z)-2-(5-Benzyl-4-hydroxy-3-methoxy-1-naphthyl)-2,5-hexadienoic acid], for which the results for the IC50 in assay [1] and in assay [2] were 1640 nM and 510 nM, respectively.
Taken in the same sequence, the figures for `COc1cc(/C(=C/C(C)C)C(=O)O)c2cccc(Cc3ccccc3)c2c1O` [Example 4, (Z)-2-(5-Benzyl-4-hydroxy-3-methoxy-1-naphthyl)-4-methyl-2-pentenoic acid] were 2760 nM and 1680 nM.
`CCC/C=C(\C(=O)O)c1cc(OC)c(O)c2c(Cc3ccccc3)cccc12` [Example 3, (Z)-2-(5-Benzyl-4-hydroxy-3-methoxy-1-naphthyl)-2-hexenoic acid]: the results for the IC50 in assay [1] and in assay [2] were 1450 nM and 520 nM, respectively.
Take `CCCC/C=C(\C(=O)O)c1cc(OC)c(O)c2c(Cc3ccccc3)cccc12` [Example 7, (Z)-2-(5-benzyl-4-hydroxy-3-methoxy-1-naphthyl)-2-heptenoic acid]: the IC50 in assay [1] was 3100 nM; in assay [2] it was > 10000 nM.
With `COc1cc(/C(=C/c2ccccc2)C(=O)O)c2cccc(Cc3ccccc3)c2c1O` [Example 10, (Z)-2-(5-benzyl-4-hydroxy-3-methoxy-1-naphthyl)-3-phenyl-2-propenoic acid], the results for the IC50 in assay [1] and in assay [2] were 2100 nM and 1860 nM, respectively.
For the molecule `COc1cc(C(C(=O)O)=C(Cl)Cl)c2cccc(Cc3ccccc3)c2c1O` [Example 55, 2-(5-Benzyl-4-hydroxy-3-methoxy-1-naphthyl)-3,3-dichloro-2-propenoic acid], the results for the IC50 in assay [1] and in assay [2] were 280 nM and 2350 nM, respectively.
Regarding `CC/C=C(\C(=O)O)c1cc(OC)c(O)c2c(Cc3ccccc3)cccc12` [Example 2, (Z)-2-(5-Benzyl-4-hydroxy-3-methoxy-1-naphthyl)-2-pentenoic acid], the values for the IC50 in assay [1] and in assay [2] were 620 nM and 320 nM, respectively.
Taken in the same sequence, the figures for `COc1cc(/C(=C/C2CCCCC2)C(=O)O)c2cccc(Cc3ccccc3)c2c1O` [Example 12, (Z)-2-(5-benzyl-4-hydroxy-3-methoxy-1-naphthyl)-3-cyclohexyl-2-propenoic acid] were 3540 nM and 10000 nM.
Regarding `COc1cc(/C(=C/Cc2ccccc2)C(=O)O)c2cccc(Cc3ccccc3)c2c1O` [Example 11, (Z)-2-(5-benzyl-4-hydroxy-3-methoxy-1-naphthyl)-4-phenyl-2-butenoic acid], the IC50 in assay [1] stood at 1880 nM; in assay [2], 1090 nM.
Take `COc1cc(/C(=C/C(C)(C)C)C(=O)O)c2cccc(Cc3ccccc3)c2c1O` [Example 13, (Z)-2-(5-benzyl-4-hydroxy-3-methoxy-1-naphthyl)-4,4-dimethyl-2-pentenoic acid]: the IC50 in assay [1] was 3350 nM; in assay [2] it was 830 nM.
Regarding `C/C=C(/C(=O)O)c1cc(OC)c(O)c2c(Cc3ccccc3)cccc12` [Example 40, (E)-2-(5-Benzyl-4-hydroxy-3-methoxy-1-naphthyl)-2-butenoic acid], the IC50 in assay [1] was determined as 2040 nM; in assay [2], 3160 nM.
